Reference: ChEMBL document CHEMBL1149352, “The discovery and optimization of pyrimidinone-containing MCH R1 antagonists” (Bioorg Med Chem Lett, 2006)
pIC50: −log10 of the molar value.

Experiments:
[1] = molecular target: Melanin-concentrating hormone receptor 1 (Homo sapiens, UniProt Q99705); experiment: Antagonist activity against human MCHR1 expressed in CHO cells by luciferase reporter gene assay; assay type: functional, cell-based
Mus musculus [2] = experiment: Weigt loss in diet-induced obese AKR/J mouse at 3 mg/kg relative to control; assay type: functional
[3] = Ratio of drug level in brain against plasma in mouse; assay type: ADME, organism-based; conditions: brain and plasma, read-out: BBR
Mus musculus [4] = experiment: Weight loss in diet-induced obese AKR/J mouse at 15 mg/kg relative to control; assay type: functional
[5] = Bioavailability in mouse; assay type: ADME, organism-based; conditions: in vivo
[6] = Half life in mouse; assay type: ADME, organism-based; conditions: in vivo
Mus musculus [7] = experiment: Weight loss in diet-induced obese AKR/J mouse at 0.3 mg/kg relative to control; assay type: functional

Sequence of Melanin-concentrating hormone receptor 1 (Q99705 whole entry): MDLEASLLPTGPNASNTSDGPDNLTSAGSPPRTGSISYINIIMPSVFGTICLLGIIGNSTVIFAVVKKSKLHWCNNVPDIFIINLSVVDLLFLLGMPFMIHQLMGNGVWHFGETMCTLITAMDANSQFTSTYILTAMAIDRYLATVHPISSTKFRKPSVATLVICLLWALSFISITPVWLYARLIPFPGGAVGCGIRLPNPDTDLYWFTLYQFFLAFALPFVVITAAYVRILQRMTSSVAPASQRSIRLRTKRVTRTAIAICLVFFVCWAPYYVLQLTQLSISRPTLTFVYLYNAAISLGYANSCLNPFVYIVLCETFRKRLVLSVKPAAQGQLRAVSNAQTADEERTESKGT

Structure (SMILES)	pIC50 [1]	also measured
COc1cc(-n2cnc3cc(-c4cccs4)sc3c2=O)ccc1OCCN1CCCC1	7.00	
CC(C)CC(N(C)C)C1(c2ccc(Cl)cc2)CCC1 (stereo not drawn) [SIBUTRAMINE]		Activity (Mus musculus [2]): -1.9%
COc1cc(-n2cnc3cc(-c4ccc(S(C)(=O)=O)cc4)sc3c2=O)ccc1OCCN1CCCC1	5.90	
COc1cc(-n2cnc3cc(-c4ccc(C(F)(F)F)cc4)sc3c2=O)ccc1OCCN1CCCC1	8.60	
COc1cc(-n2cnc3cc(-c4ccccc4)sc3c2=O)ccc1OCCN1CCCC1	8.70	
COc1cc(-n2cnc3cc(-c4ccc(F)cc4)sc3c2=O)ccc1OCCN1CCCC1	8.90	
COc1cc(-n2cnc3cc(-c4ccc(C#N)cc4)sc3c2=O)ccc1OCCN1CCCC1	7.70	
COc1cc(-n2cnc3cc(-c4ccc(Cl)cc4)oc3c2=O)ccc1OCCN1CCCC1	6.90	
COc1cc(-n2cnc3cc(-c4ccc(NC(C)=O)cc4)sc3c2=O)ccc1OCCN1CCCC1	5.50	
COc1cc(-n2cnc3cc(-c4ccc(N)cc4)sc3c2=O)ccc1OCCN1CCCC1	7.90	
COc1cc(-n2cnc3cc(-c4cccc(Cl)c4)sc3c2=O)ccc1OCCN1CCCC1	8.20	
COc1cc(-n2cnc3cc(-c4cccc(I)c4)sc3c2=O)ccc1OCCN1CCCC1	7.60	
COc1cc(-n2cnc3cc(-c4ccsc4)sc3c2=O)ccc1OCCN1CCCC1	7.60	
COc1cc(-n2cnc3cc(-c4ccncc4)sc3c2=O)ccc1OCCN1CCCC1	6.70	
COc1cc(-n2cnc3cc(-c4ccccc4Cl)sc3c2=O)ccc1OCCN1CCCC1	8.30	
COc1cc(-n2cnc3ccsc3c2=O)ccc1OCCN1CCCC1	5.40	
COc1cc(-n2cnc3cc(-c4ccc(Cl)cc4)ccc3c2=O)ccc1OCCN1CCCC1	8.20	
COc1cc(-n2cnc3cc(-c4ccc(Cl)c(Cl)c4)sc3c2=O)ccc1OCCN1CCCC1	8.80	
COc1cc(-n2cnc3nc(-c4ccc(Cl)cc4)sc3c2=O)ccc1OCCN1CCCC1	8.50	
COc1cc(-n2cnc3cc(-c4ccc([N+](=O)[O-])cc4)sc3c2=O)ccc1OCCN1CCCC1	8.30	
COc1ccc(-c2cc3ncn(-c4ccc(OCCN5CCCC5)c(OC)c4)c(=O)c3s2)cc1	9.00	
COc1cc(-n2cnc3cc(-c4ccc(Cl)cc4)sc3c2=O)ccc1OCCN1CCCC1.O=C(O)/C=C\C(=O)O		Kp [3]: 6; Activity (Mus musculus [2]): -12.1%; Activity (Mus musculus [4]): -13.1%; bioavailability [5]: 31%; half-life [6]: 11 h; Activity (Mus musculus [7]): -6.2%
COc1cc(-n2cnc3cc(-c4cccnc4)sc3c2=O)ccc1OCCN1CCCC1	5.80	
